Test results as given in patent US20220331318A1, “USE OF AN MDM2 INHIBITOR FOR THE TREATMENT OF MYELOFIBROSIS” (Novartis AG, priority 2019, published 2022).

Columns and labels:
[1] = target: CYP3A4 (Homo sapiens, UniProt P08684); test: Metabolism by CYP enzymes; format: in vitro ADME; conditions: siremadlin
[2] = target: P-gp (Homo sapiens, UniProt P08183); test: P-gp substrate assessment in vitro; format: in vitro ADME
[3] = target: T1, BCRP (Homo sapiens, UniProt Q9UNQ0); test: BCRP substrate assessment in vitro; format: in vitro ADME
T1 sequence (Q9UNQ0 1-655): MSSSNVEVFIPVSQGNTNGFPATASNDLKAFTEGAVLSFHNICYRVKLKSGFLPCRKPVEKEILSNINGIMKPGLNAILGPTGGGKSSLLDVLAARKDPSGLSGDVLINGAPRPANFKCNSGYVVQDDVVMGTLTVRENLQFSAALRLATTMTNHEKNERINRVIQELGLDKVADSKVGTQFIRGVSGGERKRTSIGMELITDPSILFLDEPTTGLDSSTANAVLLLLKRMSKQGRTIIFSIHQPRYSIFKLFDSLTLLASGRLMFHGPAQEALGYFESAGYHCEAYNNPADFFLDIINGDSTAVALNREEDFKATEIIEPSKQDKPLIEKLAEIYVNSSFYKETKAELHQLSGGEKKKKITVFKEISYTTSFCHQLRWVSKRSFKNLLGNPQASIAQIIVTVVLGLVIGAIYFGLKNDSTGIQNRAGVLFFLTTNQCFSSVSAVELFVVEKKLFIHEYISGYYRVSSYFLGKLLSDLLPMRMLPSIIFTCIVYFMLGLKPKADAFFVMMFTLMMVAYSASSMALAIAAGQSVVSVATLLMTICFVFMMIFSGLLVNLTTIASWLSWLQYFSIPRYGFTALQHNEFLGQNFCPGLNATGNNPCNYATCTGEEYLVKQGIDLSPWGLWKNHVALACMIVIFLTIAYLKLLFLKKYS

[4] = tested on: CYP3A4/5; test: CYP3A4/5 inhibition in vitro; format: in vitro ADME
[5] = tested on: CYP3A4/5; test: CYP3A4/5 induction in vitro; format: in vitro ADME; conditions: net effect anticipated rather as an inhibitor than an inducer
[6] = tested on: AML subjects; test: Phase I study HDM201X2101, single-agent siremadlin in solid tumors or hematologic malignancies (R/R AML); format: in vivo, human
Text: In this study, the selection of the siremadlin dose and regimen is based on the currently available preclinical and clinical safety, efficacy, PK and PK/PD modeling information from the phase I study HDM201X2101, a dose escalation and expansion study of single-agent siremadlin in patients with solid tumors or hematologic malignancies (R/R AML). At the time of data cut-off (15 Jan. 2018), 199 subjects have been treated applying various dosing regimens: 115 subjects with solid and 84 patients with hematological tumors. Safety and efficacy data from this trial in AML subjects was used to determine a recommended Phase 2 dose regimen of 45 mg once a day (QD) from day 1 to day 7 of a 28-day cycle (regimen 2C) which is disclosed in WO/2018/178925 (incorporated herewith by reference), At this dose regimen, Complete Response/Complete Response with incomplete blood count recovery (CR/CRi) were respectively 2/4 subjects out of 24 (25%).

[7] = Preliminary PK analysis, Phase I/II study of ruxolitinib with siremadlin in myelofibrosis patients; format: in vivo, human; conditions: for Exposure compared with historical single-agent data: combination of ruxolitinib and siremadlin 20 mg QD
Text: (§1) A Randomized, Open-Label, Phase I/II Open Platform Study Evaluating Safety and Efficacy of Novel Ruxolitinib Combination in Myelofibrosis Patients
(§2) The purpose of this study is to investigate the safety, pharmacokinetics and preliminary efficacy of combination treatment of ruxolitinib with siremadlin in MF subjects. The study consists of three parts:
Dose reductions/interruptions were not taken into consideration for this preliminary PK analysis. Nominal times were used.
This study was not specifically designed to investigate the potential for PK drug interactions, however comparative assessment of historical data has been done. A PK DDI between ruxolitinib and siremadlin is unlikely or predicted to be low, based on PBPK analysis.

[8] = tested on: myelofibrosis patients; test: Safety (DLTs, SAEs), cohort 1 of Phase I/II study of siremadlin in combination with ruxolitinib in myelofibrosis patients; format: in vivo, human; conditions: 7 patients, cohort 1, 20 mg Siremadlin in combination with Ruxolitinib
Text: as §1, §2
Incidence and severity of dose limiting toxicity (DLTs) within the first 2 treatment cycles in Part 1 of the study
1 patient potentially not evaluable due to Siremadlin interruption within first 2 cycles of treatment. PK DDI between ruxolitinib and Siremadlin is unlikely or predicted to be low, based on PBPK analysis. As per statistical model the dose of Siremadlin can be increased to 30 mg or 40 mg D1-D5 in the next cohort.

[9] = tested on: solid and hematological tumors; conditions: preclinical and clinical PK/PD modeling (Guerreiro et al 2018, Meille et al 2017); cited from earlier work
[10] = tested on: broad panel of 26 kinases; conditions: tested at 200 nM; cited from earlier work
[11] = tested on: other major CYP enzymes or transporters; conditions: cited from earlier work
[12] = target: JAK3 (Homo sapiens, UniProt P52333); conditions: at clinically relevant concentrations; cited from earlier work
[13] = AML, 45 mg QD day 1 to day 7 of a 28-day cycle (regimen 2C)

JAK3, sequence (P52333 whole entry): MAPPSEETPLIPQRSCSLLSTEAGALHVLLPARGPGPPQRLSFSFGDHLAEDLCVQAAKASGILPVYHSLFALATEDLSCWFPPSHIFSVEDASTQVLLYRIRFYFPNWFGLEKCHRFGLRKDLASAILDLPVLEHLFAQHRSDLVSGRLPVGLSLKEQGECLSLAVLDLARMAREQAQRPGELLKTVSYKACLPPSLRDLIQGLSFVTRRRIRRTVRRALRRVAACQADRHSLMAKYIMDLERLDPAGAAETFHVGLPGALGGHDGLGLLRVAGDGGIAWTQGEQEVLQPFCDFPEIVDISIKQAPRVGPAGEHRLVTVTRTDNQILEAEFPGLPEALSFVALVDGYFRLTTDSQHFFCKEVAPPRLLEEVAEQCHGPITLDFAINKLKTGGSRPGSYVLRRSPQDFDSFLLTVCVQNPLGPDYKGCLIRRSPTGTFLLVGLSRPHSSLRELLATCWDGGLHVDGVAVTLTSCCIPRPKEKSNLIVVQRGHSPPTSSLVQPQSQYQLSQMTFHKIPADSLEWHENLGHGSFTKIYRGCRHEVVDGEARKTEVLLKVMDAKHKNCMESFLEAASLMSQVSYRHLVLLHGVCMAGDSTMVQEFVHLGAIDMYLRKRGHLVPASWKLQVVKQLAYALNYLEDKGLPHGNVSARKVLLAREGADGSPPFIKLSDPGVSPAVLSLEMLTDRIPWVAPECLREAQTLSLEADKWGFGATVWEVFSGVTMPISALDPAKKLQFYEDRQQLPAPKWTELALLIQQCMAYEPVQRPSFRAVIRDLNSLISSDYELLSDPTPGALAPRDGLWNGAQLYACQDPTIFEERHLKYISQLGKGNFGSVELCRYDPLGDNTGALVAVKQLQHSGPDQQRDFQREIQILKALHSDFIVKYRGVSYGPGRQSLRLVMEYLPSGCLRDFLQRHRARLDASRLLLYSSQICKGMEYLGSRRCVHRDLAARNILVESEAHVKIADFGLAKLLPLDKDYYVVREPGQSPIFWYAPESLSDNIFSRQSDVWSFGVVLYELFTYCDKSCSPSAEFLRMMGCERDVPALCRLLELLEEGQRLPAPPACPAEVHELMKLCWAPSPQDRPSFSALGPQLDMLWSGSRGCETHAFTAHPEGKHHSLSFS
P-gp, sequence (P08183 whole entry): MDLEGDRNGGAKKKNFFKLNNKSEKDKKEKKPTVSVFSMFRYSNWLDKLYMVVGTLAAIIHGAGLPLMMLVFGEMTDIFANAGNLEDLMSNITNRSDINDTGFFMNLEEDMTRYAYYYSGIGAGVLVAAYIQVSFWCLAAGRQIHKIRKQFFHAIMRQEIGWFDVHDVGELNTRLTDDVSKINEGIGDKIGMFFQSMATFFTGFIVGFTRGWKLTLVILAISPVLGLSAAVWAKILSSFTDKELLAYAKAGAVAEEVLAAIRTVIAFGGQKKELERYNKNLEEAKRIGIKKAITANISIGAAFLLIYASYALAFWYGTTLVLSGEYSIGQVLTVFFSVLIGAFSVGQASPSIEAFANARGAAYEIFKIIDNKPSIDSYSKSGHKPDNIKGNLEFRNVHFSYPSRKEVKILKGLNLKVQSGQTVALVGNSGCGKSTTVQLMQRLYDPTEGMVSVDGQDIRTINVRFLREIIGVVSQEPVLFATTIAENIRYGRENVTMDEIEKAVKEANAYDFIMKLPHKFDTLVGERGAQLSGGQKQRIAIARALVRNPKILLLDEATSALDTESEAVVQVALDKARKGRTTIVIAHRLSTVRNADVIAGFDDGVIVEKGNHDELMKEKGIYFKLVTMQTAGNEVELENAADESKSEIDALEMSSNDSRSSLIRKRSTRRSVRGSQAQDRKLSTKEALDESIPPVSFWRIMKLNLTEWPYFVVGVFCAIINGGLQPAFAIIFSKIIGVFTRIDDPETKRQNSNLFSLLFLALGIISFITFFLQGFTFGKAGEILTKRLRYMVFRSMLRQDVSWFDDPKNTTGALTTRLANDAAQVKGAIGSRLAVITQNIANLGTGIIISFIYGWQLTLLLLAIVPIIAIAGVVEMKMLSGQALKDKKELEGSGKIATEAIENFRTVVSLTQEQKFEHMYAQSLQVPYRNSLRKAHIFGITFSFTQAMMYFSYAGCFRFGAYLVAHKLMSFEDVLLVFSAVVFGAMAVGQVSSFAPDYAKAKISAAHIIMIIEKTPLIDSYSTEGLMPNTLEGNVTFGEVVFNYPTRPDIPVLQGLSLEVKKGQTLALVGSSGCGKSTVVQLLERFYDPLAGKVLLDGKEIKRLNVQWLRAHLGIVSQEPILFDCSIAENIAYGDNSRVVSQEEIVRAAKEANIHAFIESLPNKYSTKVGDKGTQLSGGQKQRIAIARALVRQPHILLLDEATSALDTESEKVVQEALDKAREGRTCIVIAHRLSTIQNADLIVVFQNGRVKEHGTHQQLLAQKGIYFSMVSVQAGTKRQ
CYP3A4, sequence (P08684 whole entry): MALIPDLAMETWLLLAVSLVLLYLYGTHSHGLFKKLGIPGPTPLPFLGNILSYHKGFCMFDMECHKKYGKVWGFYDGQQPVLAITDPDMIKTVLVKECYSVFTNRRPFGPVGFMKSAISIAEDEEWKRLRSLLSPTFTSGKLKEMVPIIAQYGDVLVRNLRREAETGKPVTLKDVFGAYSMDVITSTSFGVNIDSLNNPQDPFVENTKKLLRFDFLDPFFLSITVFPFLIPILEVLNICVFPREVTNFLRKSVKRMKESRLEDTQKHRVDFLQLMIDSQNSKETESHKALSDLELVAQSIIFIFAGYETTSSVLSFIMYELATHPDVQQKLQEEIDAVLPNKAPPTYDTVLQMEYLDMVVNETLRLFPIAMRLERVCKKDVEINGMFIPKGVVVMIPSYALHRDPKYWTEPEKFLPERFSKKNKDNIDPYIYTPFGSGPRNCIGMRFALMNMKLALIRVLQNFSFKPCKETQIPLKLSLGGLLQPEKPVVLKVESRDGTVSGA

Compound | metabolizing enzyme [1] | P-gp substrate [2] | BCRP substrate [3] | inhibition of CYP3A4/5 [4] | induction of CYP3A4/5 [5] | Complete Response (CR) [6, 13] | Complete Response with incomplete blood count recovery (CRi) [6, 13] | CR/CRi rate ([6]; AML, 45 mg QD day 1 to day 7 of a 28-day cycle (regimen 2C), 24 subjects) | dose-limiting toxicity (DLT) ([6]; hematological tumor patients, regimen 2C) | severity of adverse events ([6]; hematological tumor patients, regimen 2C, cytopenias most commonly observed) | most frequently reported adverse drug reactions in clinic ([6]; single agent) | Exposure compared with historical single-agent data ([7]; MF patients) | DLTs [8] | on treatment SAEs [8] | anti-tumor activity on reducing application from 7 to 5 consecutive days per 28-day cycle [9] | accumulation upon repeated dosing ([7]; MF patients, ruxolitinib 10, 15 or 20 mg BID with siremadlin) | half-life ([7]; human, in vivo, oral, 20 mg) | inhibition of a broad panel of 26 kinases [10] | capacity to inhibit other major CYP enzymes or transporters [11] | inhibition of JAK3 [12]
COc1ncc(-c2nc3c(n2C(C)C)[C@H](c2ccc(Cl)cc2)N(c2cc(Cl)cn(C)c2=O)C3=O)c(OC)n1 [siremadlin, (S)-5-(5-Chloro-1-methyl-2-oxo-1,2-dihydro-pyridin-3-yl)-6-(4-chloro-phenyl)-2-(2,4-dimethoxy-pyrimidin-5-yl)-1-isopropyl-5,6-dihydro-1H-pyrrolo[3,4-d]imidazol-4-one] | predominantly metabolized by CYP3A4 | substrate | substrate | time-dependent inhibitor and a reversible inhibitor | inducer | 2 subjects out of 24 | 4 subjects out of 24 | 25% | tumor lysis syndrome (TLS) | mild to moderate in severity, reversible and manageable | hematological toxicities including thrombocytopenia, neutropenia and anemia | comparable to exposures observed previously | no DLTs | no on treatment SAEs | maintains equivalent anti-tumor activity | – | – | – | – | –
N#CC[C@H](C1CCCC1)n1cc(-c2ncnc3[nH]ccc23)cn1 [ruxolitinib, (R)-3-(4-(7H-pyrrolo[2,3-d]pyrimidin-4-yl)-1H-pyrazol-1-yl)-3-cyclopentylpropanenitrile] | – | – | – | – | – | – | – | – | – | – | – | within the exposure range of values observed previously | – | – | – | little accumulation | 3 to 4 h | < 30% | little or no capacity to inhibit | does not inhibit
